Experimental data: patent publication US20070088414A1, “Particulate formulations for intradermal delivery of biologically active agents” (priority 2005, published 2007)

How the values were obtained:
[1] = Payload determination, low molecular weight substance (SRB); assay type: physicochemical; conditions: SRB dye encapsulated in liposomes, released with 5% Triton X-100, read at 565 nm
Experimental: To determine the phospholipid concentration of liposomes, 10 μl of each liposome solution was placed in a 16×100 mm glass tube along with 0.4 ml of 10 N sulfuric acid. A set of phosphate standards was prepared from a 0.645 mM stock (Sigma P3869) which was also assayed in glass tubes alongside the liposome samples. Samples, standards and blank tubes were run in duplicate. All tubes were placed in a heating block and digested for 30 minutes at 180° C. Tubes were then removed from the heating block and cooled for 5 minutes before adding 100 μl of 9% hydrogen peroxide. All tubes were then again heated for 30 minutes at 180° C. […] All standards, samples and blanks were read at 820 nm on a spectrophotometer. Using the known standard values, a curve was generated from which phosphate concentration values can be calculated for each of the liposome samples. Phosphate concentration values are expressed as μmoles Pi/mL. […]
Sulfa rhodamine-B sodium salt (“SRB”) was used to determine payload capacity for a low molecular weight substance. […] All samples and standards were then read at 565 nm on a spectrophotometer. SRB dye payload molar concentrations were then calculated from the known standard curve. Using this procedure, the payload for SRB was determined to be about 10.956 nmoles per 50 nmoles of phosphate. […]

[2] = Lymph node penetration assay; conditions: Intradermal injection, liposomes 30 minutes after avidin, nodes harvested 24 hours, sodium salt
Experimental: Avidin was purchased from Sigma, with the concentration at 10 mg/ml. Avidin was hydrated with injectable saline. A 50 μl aliquot, at a dose of 250 μg, was delivered as described.
SRB was purchased from Sigma (Cat.# S9012). SRB was selected for its high solubility, and due to the fact that it is readily visible to the naked eye and has fluorescent properties.
An LUV process was used to make the SRB-liposomes. Two basic formulations were developed—hi and low PE-biotin content. […] The liposome formulation contained the following: DSPC (94.0 mg; 119.0 μmoles); DSPG (10.3 mg; 13.2 μmoles); Chol (50.9 mg; 132.0 μmoles); and Diol Biotin (2.6 mg; 2.64 μmoles). The mixture was brought to about 20 ml with chloroform and methanol at a 10:1 ratio. Organic solvent was removed at 45° C. A thin film on a rotovap flask was hydrated in 18 ml of 0.1M SRB prepared in buffer (1 mM EDTA, 0.2% NaN3, pH=8.0). The lipid dye suspension was then extruded through a series of nucleopore membranes (5.0. 1.0, 0.8, 0.6, 0.4, 0.2, 0.1, 0.05 micron). Approximately 5 ml was saved after the 0.2, 0.1 and 0.05 micron membranes. Each of the 5 ml preps was centrifuged, and pellets washed with osmotically adjusted (physiological 310 mOSM) buffer. After the free SRB was washed away, the final liposome pellets were resuspended in the same buffer to the final volume of 1 ml. […]

[3] = intravenous, 200 uL single tail vein injection
Experimental: IV delivery of free and particulate ICG was administered in a 200 uL volume in a single tail vein injection.

Visible Aggregation/Accumulation in Axillary Node ([2]; listed as Free SRB liposomes) | Visible Aggregation/Accumulation in Axillary Node [2] | SMILES | payload for SRB [1] | accumulation across the peritoneal cavity [3]
no SRB color retention in the node | No | CCN(CC)c1ccc2c(-c3ccc(S(=O)(=O)[O-])cc3S(=O)(=O)[O-])c3ccc(=[N+](CC)CC)cc-3oc2c1.[Na+] [free SRB, Sulfa rhodamine-B sodium salt] | about 10.956 nmoles per 50 nmoles of phosphate | –
– | – | CC1(C)C(/C=C/C=C/C=C/C=C2\N(CCCCS(=O)(=O)O)c3ccc4ccccc4c3C2(C)C)=[N+](CCCCS(=O)(=O)[O-])c2ccc3ccccc3c21 [free cardiogreen, Indocyanine Green] | – | manifested accumulation across the peritoneal cavity
